Data taken from ChEMBL document CHEMBL3616407, “The imidazo[1,2-a]pyridine ring system as a scaffold for potent dual phosphoinositide-3-kinase (PI3K)/mammalian target of rapamycin (mTOR) inhibitors” (Bioorg Med Chem Lett, 2015).

Legend:
Format in all cases: ADME, organism-based
Details in all cases: in vivo
[1] = Volume of distribution in iv dosed rat
[2] = Oral bioavailability in rat at 2 mg/kg
[3] = AUC in rat at 2 mg/kg, po
[4] = tested on: Plasma; test: Unbound plasma concentration in mouse

- Vd [1]: 4.2 L/kg
- bioavailability [2]: 51%
- AUC [3]: 640 ng·h/mL
- Cp(f) [4]: 84 nM
Structure (SMILES): COc1ncc(Nc2nc3ccc(C(C)(C)O)cn3c2-c2nc(C)nc(N)n2)cc1F
